Test results reported in patent US20060106099A1, “Novel inhibitors of ubiquitin isopeptidases” (priority 2002, published 2006).
Read-outs that look alike come from different tables or passages of the source.

Assays:
p53 [1] = assay: p53 accumulation, ratio RKO-E6 cells/RKO cells (immunoblot, densitometry); format: cell-based, human; conditions: 6 h; etoposide 50 μM, MG115, NSC-302979, DBA 20 μM, others 60 μM
Description: (§1) A) Accumulation of polyubiquitin. RKO-E6 cells were treated with DMSO vehicle for 24 h, 37° C., or with the concentrations of test compounds that gave 80% cell death (as determined by cell viability assay at 48 h) for 6, 12, or 24 h, 37° C. […] Schematic depicting p53 degradation via the proteasome pathway in RKO cells versus RKO-E6 cells. The activity of the HPV E6 oncoprotein hastens p53 degradation in RKO-E6 cells. ii. RKO and RKO-E6 cells were treated with vehicle, etoposide (50 μM), MG115 (20 μM), Δ12-PGJ2 (60 μM), NSC-302979 (20 μM, DBA (20 μM), curcumin (60 μM), PGB1 (60 μM), NSC-156236, (60 XM)or DPTP 60 μM for 6 h, 37° C. Lysates were fractionated by SDS-PAGE and their p53 content determined immunochemically. iii. p53 levels were measured by densitometry and the ratio of p53 protein in RKO-E6 cells/RKO cells calculated.
(§2) The medium was removed and cells lysed in 50 mM Tris, pH 7.4, 100 mM NaCl, 2 mM EDTA with 0.1% SDS, 0.1% deoxycholate, 1× complete protease inhibitor mixture. Protein concentration was measured by the Bradford method. Equal portions of the total cell lysate were fractionated from each sample (12.5 μg of protein) by SDS-PAGE. Proteins were transferred to poly(vinylidene difluoride) blocked with 5% (w/v) nonfat dry milk in Trisbuffered saline [20 mM Tris-HCl, pH 7.5, 100 mM sodium chloride, 0.1% (v/v) Tween 20]. Proteins were detected immunochemically by using primary antibodies directed against p53 (1:4000) or ubiquitin (1:1000), followed by horseradish peroxidase-conjugated secondary antibodies (1:4000). Antigen-antibody complexes were detected with enhanced chemiluminescence reagents. Gels were scanned and quantified intensities using Kodak 1D Image Analysis Software.

p53 [2] = assay: p53 accumulation ratio in RKO-E6 and RKO cells, punaglandin study; format: cell-based, human; conditions: 6 h; 50 μM Etoposide, 60 μM PGA2
Description: To determine if punaglandins inhibit p53 degradation by disrupting the proteasome pathway, the accumulation ratio of p53 was determined in RKO and RKO-E6 cells treated with selected punaglandins, PNG 4 (8) and PNG 6 (10). Equally seeded RKO and RKO-E6 cells were treated with vehicle (0.5% DMSO), 50 μM Etoposide, 60 μM PGA2 (3), 7 μM PNG 6 (10), and 7 μM PNG 4 (8). After 6 h incubation with vehicle or drug, cells were lysed and harvester. […] of protein from each lysate was fractionated by SDS-PAGE and probed for p53 protein. The p53 band intensities were then analyzed and quantitated using densitometry. The ratio of p53 in RKO-E6 to RKO cells was calculated by dividing the amount of p53 in RKO-E6 cells by the amount in RKO cells and multiplying by 100 to give percent

p21 = p21 accumulation in RKO cells; format: cell-based, human; conditions: 6 h
Description: It was therefore hypothesized that the isopeptidase inhibitors PNG 4 (8) and PNG 6 (10) would cause a similar accumulation of p21 protein. RKO cells were treated with 2 μM and 7 μM of 8 and 10, 50 μM Etoposide, 60 μM PGA2 (3), or 0.5% DMSO for 6 h before harvesting. Protein was then quantitated, fractionated by SDS-PAGE, and probed for p21 protein. The p21 band intensities were then analyzed and quantitated using densitometry. The ratio of p21 in treated cells to control cells was calculated by dividing the amount of p21 in treated cells by the amount in control cells and multiplied by 100 to give percent.

RKO cells = assay: MTT cell viability assay, RKO cells; conditions: 48 h; for EC50: read-out: Cytotoxic Potency (EC50) RKO; for cell death in RKO compared with RKO-E6 cells: isogenic pair
Description: (§3) Cell viability was measured with MTT reagent as described in materials and methods.
(§4) Cell viability was detected by the MTT assay. Briefly, 1×10^5 cells were incubated per well of a sterile, 96-well assay plate with 0-60 μM of test compounds for 48 hours. MTT reagent was added to each well, final concentration of 0.5 mg/mL, and incubated for an additional 3 hours. The media was aspirated and remaining MTT reagent from each well and added 100 μL of HCl:isopropanol (1:24). The absorbance of each sample was measured at 405 nm.

RKO-E6 cells = assay: MTT cell viability assay, RKO-E6 cells; conditions: for EC50: read-out: Cytotoxic Potency (EC50) RKO-E6
Description: as §3, §4

HCT 116 +/+ cells = assay: MTT cell viability assay, HCT 116 p53 +/+ cells; conditions: for EC50: read-out: Cytotoxic Potency (EC50) HCT +/+; for cell death in HCT 116 +/+ compared with HCT 116 −/− cells: isogenic pair
HCT 116 −/− cells = assay: MTT cell viability assay, HCT 116 p53 −/− cells; conditions: for EC50: read-out: Cytotoxic Potency (EC50) HCT −/−
Description: as §3, §4

ubiquitin isopeptidases [3] = assay: Ubiquitin isopeptidase activity, Ub-PEST substrate, lysates of treated RKO and HCT 116 cells; format: cell-based, human; conditions: cells treated 6, 20 or 60 μM, 12 h
Description: A) Inhibition of isopeptidase proteolysis of Ub-PEST substrate. RKO and HCT 116 cells were treated with DMSO vehicle, 6, 20, or 60 μM of Δ12-PGJ2, DBA, NSC-302979, or curcumin, 60 μM PGB1, 60 μM NSC-156236, or 60 μM DPTP for 12 h, 37° C. Cell lysates from each treatment were incubated with Ub-PEST, as described in materials and methods. Samples were fractionated by SDS-PAGE and proteins detected with ubiquitin epitopes immunochemically (HCT 116 ^+/+ western blot shown as example of raw data). […] B) Inhibition of isopeptidase activity by test panel compounds. Isopeptidase activity was determined by measuring via densitometry, the amount of Ub generated by isopeptidase cleavage of Ub-PEST. Bar graph patterns are DMSO vehicle (black), Δ12-PGJ2 (hatched), DBA (horizontal lines), NSC-302979 (white), PGB1 (diagonally downward right lines), and NSC-156236 (diagonally downward left lines). The amount of Ub generated in the vehicle treated sample (panel A, lane 2) is arbitrarily designated 100%.
Cellular isopeptidase enzymatic activity was measured with two assays that used different substrates. In one assay ubiquitin-PEST (Ub-PEST) was used, a full-length ubiquitin molecule with an 18 amino acid c-terminal peptide extension (total mass=10.5 kDa). Ubiquitin isopeptidases specifically cleave the 18 amino acid peptide extension, releasing full-length ubiquitin (8.5 kDa).
Briefly, 6×10^5 cells were incubated with 0-60 μM of test compounds for 12 hrs. Cells were lysed in 50 μL of 25 mM HEPES, 5 mM EDTA, 0.1% CHAPS, 5 mM ATP, pH 7.5. The protein concentration of each sample was adjusted to 0.3 mg/mL and incubated with 50 μg/mL Ub-PEST for 45 minutes at 25° C. Under these conditions, Ub-PEST hydrolysis occurs at a linear rate. 20 μL samples were mixed with 20 μL 2× Laemmli buffer, boiled briefly, and fractionated by SDSPAGE. Isopeptidase activity was monitored by determining the amount of product (8.5 kDa ubiquitin) formation.

ubiquitin isopeptidases [4] = assay: Ubiquitin isopeptidase activity, z-LRGG-AMC substrate, lysates of treated RKO and HCT 116 cells; format: cell-based, human; conditions: cells treated 6, 20 or 60 μM, 12 h
Description: RKO (upper) and HCT 116 ^+/+ cells (lower) were treated with DMSO vehicle, 6, 20, or 60 μM of Δ12-PGJ2, DBA, NSC-302979, or curcumin, 60 μM PGB1, 60 μM NSC-156236, or 60 μM DPTP for 12 h at 37° C. Cell lysates (0.5 mg/mL) from each treatment were incubated with the isopeptidase substrate, z-LRGG-AMC, for 3 h, 37° C. The amount of AMC cleaved by isopeptidase was determined fluorometrically, as described in Materials and Methods.
The second assay used a fluorescent tetrapeptide, z-LRGG-AMC, as a substrate that mimics the carboxy-terminus of ubiquitin. Isopeptidase activity hydrolyzes the bond between the c-terminal glycine and the fluorophore. This tetrapeptide also undergoes slow proteolysis by the catalytic subunit of the proteasome. To minimize this background rate of proteolysis cell lysates were incubated with 30 μM MG115 for 30 minutes at 4° C., prior to substrate incubation (>90% proteasome inhibition). Cells were teeated as above, lysed in 250 μL of lysis buffer per sample, and adjusted protein concentration to 0.5 mg/mL prior to incubation with MG115. Next, z-LRGG-AMC substrate was added and fluorescence was quantified of the AMC moiety cleaved by isopeptidase action.

[5] = test system: polyubiquitin conjugates in RKO-E6 cells; assay: Accumulation of polyubiquitin in RKO-E6 cells (immunoblot); format: cell-based, human; conditions: EC80 or 60 μM, 6-24 h
Description: as §1, §2

[6] = test system: cell lines with Wild type p53; conditions: cited from earlier work
[7] = test system: cell lines with mutant/deleted p53; conditions: mean of 41-42 cell lines with mutant/deleted p53; cited from earlier work
isopeptidase = conditions: cited from earlier work
caspase-3 = assay: Caspase-3 activity in RKO cells (DEVD-AMC); format: cell-based, human; conditions: PNG 4 0.5 μM, PNG 6 1 μM, Taxol 1 μM
Description: To determine if selected punaglandins, PNG 4 (8) and PNG 6 (10) also induce apoptosis in RKO cells in a time dependent manner, caspase-3 activity was determined. During apoptosis the caspases, a family of cysteinyl aspartate-specific proteases, are activated. These enzymes cleave specific substrates resulting in biochemical and morphological changes associated with apoptosis. Therefore, detection of activated caspases can be used as a biochemical marker for apoptosis. Caspase-3 has substrate specificity for the amino acid sequence Asp-Glu-Val-Asp (DEVD), cleaving after Asp, and therefore caspase activity can be measured by monitoring cleavage of the substrate DEVD-AMC (Asp-Glu-Val-Asp-7-amino-4-[…]).
RKO cells were treated for 4, 8, and 12 h with PNG 4 (8) at 0.5 μM and PNG 6 (10) at 1 μM. Taxol, a known apoptotic inducer at 1 μM, was used as a positive control, and negative control cells were treated with vehicle (0.5% DMSO). Caspase-3 activity rose steadily as expected from 4-12 h in cells treated with PNG 4 (8), PNG 6 (10), and Taxol but remained constant in the untreated control cells.

| Compound | ratio of p53 protein [RKO-E6 cells/RKO cells] (p53 [1]) | p53 in RKO-E6 cells as percent of RKO cells (p53 [2]) | EC50 (RKO cells; Homo sapiens, RKO) | EC50 (RKO-E6 cells; Homo sapiens, RKOE6, 48 h) | EC50 (HCT 116 +/+ cells; Homo sapiens, HCT-116, 48 h) | EC50 (HCT 116 −/− cells; Homo sapiens, HCT-116, 48 h) | cell death in RKO compared with RKO-E6 cells (RKO cells; MTT) | cell death in HCT 116 +/+ compared with HCT 116 −/− cells (HCT 116 +/+ cells; 48 h, MTT) | also measured |
| --- | --- | --- | --- | --- | --- | --- | --- | --- | --- |
| COc1cc([C@@H]2c3cc4c(cc3[C@@H](O[C@@H]3O[C@@H]5CO[C@@H](C)O[C@H]5[C@H](O)[C@H]3O)[C@H]3COC(=O)[C@H]23)OCO4)cc(OC)c1O [Etoposide, etoposide] | 0.1 | 50% | 7.3 ± 1.6 µM | 20 ± 2.7 µM | 7.8 ± 3.9 µM | 29 ± 6.8 µM |  |  | p21 protein in treated cells relative to control cells (p21; 50 µM): 290%; potency in RKO-E6 cells less than in RKO cells (RKO-E6 cells; 48 h, MTT): ~3 fold; potency in HCT 116 −/− cells less than in HCT 116 +/+ cells (HCT 116 −/− cells; 48 h, MTT): ~4 fold |
| CC1=CC(=O)C2=C(C)CCC3C(C)C(=O)OC3C12 (centres unmarked) [NSC-156236, achillin] | significantly less than unity |  |  |  |  |  | did not cause significant cell death | did not cause significant cell death | inhibition of isopeptidase cleavage of Ub-PEST (ubiquitin isopeptidases [3]): did not inhibit isopeptidase activity; inhibition of z-LRGG-AMC hydrolysis by ubiquitin isopeptidases (ubiquitin isopeptidases [4]): did not; cellular accumulation of polyubiquitin conjugates [5]: did not cause appreciable cellular accumulation of ubiquitin conjugates; cytotoxic activity in NCI 60 cell line cancer screening data [6]: no appreciable cytotoxic activity; Wild Type p53 Mean LC50 ([6]; mean of 18 cell lines with wild type p53): Inactive; Mutant p53 Mean LC50 [7]: Inactive; EC50 (RKO cells; MTT): > 60 µM; EC50 (RKO-E6 cells; 48 h, MTT): > 60 µM; EC50 (HCT 116 +/+ cells; 48 h, MTT): > 60 µM; EC50 (HCT 116 −/− cells; 48 h, MTT): > 60 µM |
| CCCCC[C@H](O)/C=C/[C@H]1C=CC(=O)[C@@H]1C/C=C\CCCC(=O)O [PGA2] |  | 60% |  |  |  |  |  |  | p21 protein in treated cells relative to control cells (p21; RKO cells, 50 μM Etoposide, 60 μM PGA2, punaglandins 2 and 7 μM): 10%; isopeptidase inhibition relative to Δ12-PGJ2 (isopeptidase): significantly less potent |
| CC(=O)O[C@H]1C(=O)[C@@]2(C)[C@H]([C@H](OC(=O)c3ccccc3)[C@]3(O)C[C@H](OC(=O)[C@H](O)[C@@H](NC(=O)c4ccccc4)c4ccccc4)C(C)=C1C3(C)C)[C@]1(OC(C)=O)CO[C@@H]1C[C@@H]2O [Taxol, paclitaxel] |  |  | 0.004 µM | 0.004 µM | 0.004 µM | 0.005 µM | equivalent | equivalent | Caspase-3 activity from 4-12 h (caspase-3): rose steadily |
